We go through one compound from patent US20120028045A1, “Processes for the Preparation of Indiplon and Intermediates Thereof” (Glenmark Generics LTD, priority 2009, published 2012).

The structures appear in SMILES notation.

Assay type in all cases: physicochemical
A short description of data set [1]: Particle size distribution (laser light scattering, Malvern Mastersizer 2000). To be noted: crystal particles of indiplon. The text has this:
As used herein “Particle Size Distribution (P.S.D.)” means the cumulative volume size distribution of equivalent spherical diameters as determined by laser diffraction at 1 bar dispersive pressure in Sympatec Helos equipment.
“Mean particle size distribution, i.e., d (0.5)” correspondingly, means the median of said particle size distribution.
The particle size can be determined by such techniques as, for example, Malvern light scattering, a laser light scattering technique, etc., while herein, used Malvern Mastersizer 2000. It is noted the notation Dx means that X % of the particles have a diameter less than a specified diameter D. The particle sizes of the Indiplon can be obtained by, for example, any milling, grinding, micronizing or other particle size reduction method known in the art to bring the solid state indiplon any of the foregoing desired particle size range.

A short description of data set [2]: Bulk density as per USP method I.
Data set [3] is described as follows: Specific surface area by BET (nitrogen absorption). The following applies: crystal particles of indiplon. An excerpt:
Specific surface area is defined in units of square meters per gram (m^2/g). It is usually measured by nitrogen absorption analysis. In this analysis, nitrogen is absorbed on the surface of the substance. The amount of the absorbed nitrogen (as measured during the absorption or the subsequent desorption process) is related to the surface area via a formula known as the B. ET. formula.

For `CC(=O)N(C)c1cccc(-c2ccnc3c(C(=O)c4cccs4)cnn23)c1` [indiplon, N-methyl-N-[3-[3-(thien-2-ylcarbonyl)pyrazolo[1,5-a]pyrimidin-7-yl]phenyl]acetamide], in data set [1], the “Particle size Distribution d(0.1)” value is on record as “d(0.1) 4.949 μm” and the “Particle size Distribution d(0.9)” value was “d(0.9) 24.325 μm”. Moreover, the “Particle size Distribution d(0.5)” value in data set [1] (median particle size) is recorded as “d(0.5) 11.641 μm”. Further, the “Bulk Density, after tapping (750)” value in data set [2] (after tapping (750), USP method I) is “After tapping (750) = 0.47 g/ml as per USP”. For the same compound, in data set [2] (as such (untapped)), the “Bulk Density, as such” value was “As such = 0.24 g/ml”. Moreover, the “Surface area by BET” value in data set [3] is 1.41 m^2/gm.
